ChEMBL document CHEMBL4321867, “Optimization of LpxC Inhibitor Lead Compounds Focusing on Efficacy and Formulation for High Dose Intravenous Administration” (J Med Chem, 2020)
Values after ≈ are worked out from the molar mass of the structure shown.

Legend:
Klebsiella oxytoca = assay: microbe, parasite or virus in culture
Haemophilus influenzae = assay: microbe, parasite or virus in culture
Pseudomonas aeruginosa [1] = assay: microbe, parasite or virus in culture
Acinetobacter baumannii = assay: microbe, parasite or virus in culture
Escherichia coli [2] = assay: microbe, parasite or virus in culture
Morganella morganii = assay: microbe, parasite or virus in culture
[3] = system: Stenotrophomonas maltophilia; assay: microbe, parasite or virus in culture
Citrobacter freundii = assay: microbe, parasite or virus in culture
Moraxella catarrhalis = assay: microbe, parasite or virus in culture
Burkholderia cepacia = assay: microbe, parasite or virus in culture
Klebsiella aerogenes = assay: microbe, parasite or virus in culture
Serratia marcescens = assay: microbe, parasite or virus in culture
Klebsiella pneumoniae [4] = assay: microbe, parasite or virus in culture
Enterobacter cloacae = assay: microbe, parasite or virus in culture
Proteus mirabilis = assay: microbe, parasite or virus in culture
Escherichia coli [5] = assay: microbe, parasite or virus in culture; details: ATCC 25922
in vitro [6] = details: human, liver microsomes
physchem [7] = details: n-octanol/phosphate buffer, pH 7.4
in vitro [8] = details: rat, liver microsomes
in vitro [9] = details: rat, hepatocytes
Klebsiella pneumoniae [10] = assay: microbe, parasite or virus in culture; details: T6474
in vivo [11] = details: mouse, sc, 150 mg/kg
in vitro [12] = details: human, hepatocytes
Pseudomonas aeruginosa [13] = assay: microbe, parasite or virus in culture; details: ATCC 27853
[14] = system: T1, UDP-3-O-acyl-N-acetylglucosamine deacetylase (Pseudomonas aeruginosa (strain ATCC 15692 / PAO1 / 1C / PRS 101 / LMG12228)), P47205 [C40S]; details: 25 uM
T1 sequence (whole entry): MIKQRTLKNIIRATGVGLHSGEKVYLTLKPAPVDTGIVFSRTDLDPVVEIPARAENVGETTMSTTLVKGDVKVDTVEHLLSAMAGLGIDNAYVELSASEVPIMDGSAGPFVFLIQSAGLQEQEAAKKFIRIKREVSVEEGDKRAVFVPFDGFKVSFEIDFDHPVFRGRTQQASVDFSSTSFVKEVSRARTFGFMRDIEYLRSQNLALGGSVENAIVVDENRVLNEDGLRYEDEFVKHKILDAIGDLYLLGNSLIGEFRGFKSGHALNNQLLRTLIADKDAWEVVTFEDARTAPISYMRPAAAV

physchem [15] = details: buffer, pH 7
in vitro [16] = details: rat, plasma
physchem [17] = details: buffer, pH 9
physchem [18] = details: 5% mannitol/water, pH 4.5
[19] = system: T2, UDP-3-O-acyl-N-acetylglucosamine deacetylase (Escherichia coli K-12), P0A725 [C125S]; details: 25 uM
T2 sequence (whole entry): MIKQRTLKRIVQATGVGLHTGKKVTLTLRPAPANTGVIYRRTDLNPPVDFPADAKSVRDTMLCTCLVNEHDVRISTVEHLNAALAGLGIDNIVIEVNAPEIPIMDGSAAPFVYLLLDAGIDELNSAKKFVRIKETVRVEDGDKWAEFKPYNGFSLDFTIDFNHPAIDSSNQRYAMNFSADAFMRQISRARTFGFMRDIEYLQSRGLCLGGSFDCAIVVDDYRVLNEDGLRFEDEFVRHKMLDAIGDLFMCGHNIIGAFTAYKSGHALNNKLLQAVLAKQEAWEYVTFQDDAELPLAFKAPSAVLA

in vivo [20] = details: Wistar, rat, iv, 10 mg/kg
physchem [21] = details: buffer, pH 4
physchem [22] = assay: physchem
in vivo [23] = details: Wistar, rat, iv, 50 mg/kg
in vivo [24] = details: mouse, sc, 50 mg/kg

Row | SMILES | MIC90 (Klebsiella oxytoca) [µg/mL] | MIC90 (Haemophilus influenzae) [µg/mL] | MIC90 (Pseudomonas aeruginosa [1]) [µg/mL] | MIC90 (Acinetobacter baumannii) [µg/mL] | MIC90 (Escherichia coli [2]) [µg/mL] | MIC90 (Morganella morganii) [µg/mL] | MIC90 [3] [µg/mL] | MIC90 (Citrobacter freundii) [µg/mL] | MIC90 (Moraxella catarrhalis) [µg/mL] | MIC90 (Burkholderia cepacia) [µg/mL] | MIC90 (Klebsiella aerogenes) [µg/mL] | MIC90 (Serratia marcescens) [µg/mL] | MIC (Escherichia coli [5]) [µg/mL] | microsomal CLint at 1 µM (in vitro [8]) [µL/min/mg] | hepatocyte CLint at 1 µM (in vitro [9]) [µL/min/1e6 cells] | MIC (Klebsiella pneumoniae [10]) [µg/mL] | MIC (Pseudomonas aeruginosa [13]) [µg/mL] | solubility at 24 h (physchem [15]) [µg/mL] | solubility at 24 h (physchem [17]) [µg/mL] | solubility at 24 h (physchem [21]) [µg/mL] | also measured
1 | C[C@@H](O)[C@H]1C(=O)N2C(C(=O)O)=C(SCCNC=N)C[C@H]12 [IMIPENEM ANHYDROUS] | 0.5 (≈ 1.67 µM) | 0.5 (≈ 1.67 µM) | > 16 | > 16 | 0.25 (≈ 0.835 µM) | 16 (≈ 53.4 µM) | > 16 | 1 (≈ 3.34 µM) | 0.06 (≈ 0.2 µM) | > 16 | 2 (≈ 6.68 µM) | 1 (≈ 3.34 µM) | – | – | – | – | – | – | – | – | MIC90 (Klebsiella pneumoniae [4]): > 16 µg/mL; MIC90 (Enterobacter cloacae): 1 µg/mL (≈ 3.34 µM); MIC90 (Proteus mirabilis): 4 µg/mL (≈ 13.4 µM)
2 | C[C@@](CCN1Cc2cc(C#CC#CC3CN(CCF)C3)cn2C1=O)(C(=O)NO)S(C)(=O)=O | 0.125 (≈ 0.269 µM) | ≤ 0.03 | 1 (≈ 2.15 µM) | > 16 | 0.25 (≈ 0.538 µM) | 0.25 (≈ 0.538 µM) | > 16 | 0.5 (≈ 1.08 µM) | > 16 | 4 (≈ 8.61 µM) | 1 (≈ 2.15 µM) | 0.25 (≈ 0.538 µM) | 0.06 (≈ 0.129 µM) | > 1250 | 15.4 | 0.25 (≈ 0.538 µM) | 0.5 (≈ 1.08 µM) | 247 (≈ 532 µM) | > 780 | > 780 | microsomal CLint at 1 µM (in vitro [6]): < 10 µL/min/mg; logD (physchem [7]): 1; AUC(0-t) at 24 h (in vivo [11]): 49100 ng·h/mL; hepatocyte CLint at 1 µM (in vitro [12]): < 2 µL/min/1e6 cells; deltaTm [14]: 12.9 K; fraction unbound at 1 µM (in vitro [16]): 0.067; solubility (physchem [18]): 25000 µg/mL (≈ 53800 µM); deltaTm [19]: 10.6 K; clearance at 24 h (in vivo [20]): 38 mL/min/kg; MIC90 (Klebsiella pneumoniae [4]): 2 µg/mL (≈ 4.31 µM); MIC90 (Enterobacter cloacae): 1 µg/mL (≈ 2.15 µM); pKa (physchem [22]): 6.7; MIC90 (Proteus mirabilis): 0.5 µg/mL (≈ 1.08 µM)
3 | C[C@@](CCN1Cc2cc(C#CC#CC3(CO)CC3)cn2C1=O)(C(=O)NO)S(C)(=O)=O | – | – | – | – | – | – | – | – | – | – | – | – | 0.25 (≈ 0.577 µM) | 24 | 8.5 | 1 (≈ 2.31 µM) | 0.5 (≈ 1.15 µM) | 384 (≈ 886 µM) | 553 (≈ 1280 µM) | 149 (≈ 344 µM) | logD (physchem [7]): 0.9; AUC(0-t) at 24 h (in vivo [11]): 89500 ng·h/mL
4 | C[C@@](CCN1Cc2cc(C#CC#CC3CN(CCO)C3)cn2C1=O)(C(=O)NO)S(C)(=O)=O | 4 (≈ 8.65 µM) | ≤ 0.03 | 2 (≈ 4.32 µM) | > 16 | 1 (≈ 2.16 µM) | 1 (≈ 2.16 µM) | > 16 | 1 (≈ 2.16 µM) | > 16 | 16 (≈ 34.6 µM) | 1 (≈ 2.16 µM) | 1 (≈ 2.16 µM) | 0.5 (≈ 1.08 µM) | 198 | 7.3 | 1 (≈ 2.16 µM) | 0.5 (≈ 1.08 µM) | > 780 | > 780 | > 780 | microsomal CLint at 1 µM (in vitro [6]): 14 µL/min/mg; logD (physchem [7]): 0.1; AUC(0-t) at 24 h (in vivo [11]): 63200 ng·h/mL; hepatocyte CLint at 1 µM (in vitro [12]): < 2 µL/min/1e6 cells; deltaTm [14]: 11.2 K; fraction unbound at 1 µM (in vitro [16]): 0.301; solubility (physchem [18]): 30000 µg/mL (≈ 64900 µM); deltaTm [19]: 9.7 K; clearance at 24 h (in vivo [23]): 28 mL/min/kg; MIC90 (Klebsiella pneumoniae [4]): 2 µg/mL (≈ 4.32 µM); MIC90 (Enterobacter cloacae): 4 µg/mL (≈ 8.65 µM); pKa (physchem [22]): 7.9; MIC90 (Proteus mirabilis): 1 µg/mL (≈ 2.16 µM)
5 | C[C@@](CCN1Cc2cc(C#CC#C[C@H]3C[C@@H]3CO)cn2C1=O)(C(=O)NO)S(C)(=O)=O | – | – | – | – | – | – | – | – | – | – | – | – | 0.12 (≈ 0.277 µM) | < 10 | 19 | 0.25 (≈ 0.577 µM) | 0.25 (≈ 0.577 µM) | 588 (≈ 1360 µM) | 628 (≈ 1450 µM) | 600 (≈ 1380 µM) | microsomal CLint at 1 µM (in vitro [6]): < 10 µL/min/mg; AUC(0-t) at 24 h (in vivo [24]): 124000 ng·h/mL; hepatocyte CLint at 1 µM (in vitro [12]): 3.2 µL/min/1e6 cells; fraction unbound at 1 µM (in vitro [16]): 0.008; clearance at 24 h (in vivo [20]): 17 mL/min/kg
6 | CN1CC(C#CC#Cc2cc3n(c2)C(=O)N(CC[C@](C)(C(=O)NO)S(C)(=O)=O)C3)C1 | 4 (≈ 9.25 µM) | ≤ 0.03 | 2 (≈ 4.62 µM) | > 16 | 1 (≈ 2.31 µM) | 0.5 (≈ 1.16 µM) | > 16 | 1 (≈ 2.31 µM) | > 16 | 16 (≈ 37 µM) | 1 (≈ 2.31 µM) | 0.5 (≈ 1.16 µM) | 0.5 (≈ 1.16 µM) | 665 | 8.6 | 0.5 (≈ 1.16 µM) | 0.5 (≈ 1.16 µM) | > 730 | > 730 | > 730 | microsomal CLint at 1 µM (in vitro [6]): 48 µL/min/mg; logD (physchem [7]): 0.3; AUC(0-t) at 24 h (in vivo [11]): 52900 ng·h/mL; hepatocyte CLint at 1 µM (in vitro [12]): < 2 µL/min/1e6 cells; deltaTm [14]: 9.9 K; fraction unbound at 1 µM (in vitro [16]): 0.19; solubility (physchem [18]): 30000 µg/mL (≈ 69400 µM); deltaTm [19]: 8.9 K; clearance at 24 h (in vivo [20]): 18 mL/min/kg; MIC90 (Klebsiella pneumoniae [4]): 4 µg/mL (≈ 9.25 µM); MIC90 (Enterobacter cloacae): 4 µg/mL (≈ 9.25 µM); pKa (physchem [22]): 8.4; MIC90 (Proteus mirabilis): 1 µg/mL (≈ 2.31 µM)
